These results are taken from patent publication US20090082355A1, “Method of Combating Root Weevils” (BASF SE, priority 2006, published 2009).

Holding throughout (format): in vivo, Otiorhynchus sulcatus (black vine weevil)
Data set [1] deals with Otiorhynchus sulcatus. The experiment in a line: Control of Otiorhynchus sulcatus larvae in the woody ornamental Thuja occidentalis 'Holmstrub' (pot trial). The settings on record: for Average feeding on roots: method B, index 1 no feeding observed to 4 most roots are damaged; for Average number of total larvae: treatment method B (drench), 20 eggs per pot, approx. 8 months after treatment. How it is done:
Root cuttings of Thuja occidentalis ‘Holmstrub’ were potted in 3-liter containers using a standard soil substrate and first placed on an outdoor container field for four months and then transferred to an indoor container field at a temperature of 15-20° C. for another four months. In treatment method A, 750 g Suscon (chloropyrifos)/m^3 were mixed through the soil substrate. In treatment method B, the calculated amount of product was dissolved in 0.75 l water and added to the 3 litre pot as a drench. The soil of the pot was moistened before application. Eggs of Otiorhynchus sulcatus (20 eggs per pot) were added to the pots 15 weeks after treatment. Approximately 8 months after treatment, the average total number of live larvae (hereinafter also referred to as “average of total larvae”) and the average feeding on the roots were determined. The feeding on the roots was assessed according to the following index rating:
1 no feeding observed 2 slight feeding 3 significant feeding, few root tips are present 4 most roots are damaged
Each experiment was replicated 4 times.

Data set [2] concerns Otiorhynchus sulcatus. Put plainly: Control of Otiorhynchus sulcatus adults on Euonymus fortunei 'Dart's Blanket': feeding effect. The settings on record: 10 untreated weevils, 20° C. How it is done:
(§1) The efficacy of different doses of compound I-1 to control adults of the black vine weevil (Otiorhynchus sulcatus) was tested after direct contact and after feeding of the product. The formulated product was dissolved in water and the resulting aqueous solution/suspension was applied to black vine weevil adults directly or to Euonymus fortunei branches and the branches were exposed to black vine weevil adults.
4 plants of Euonymus fortunei ‘Dart's Blanket’ per treatment were sprayed until drip stadium. 10 untreated black vine weevils were put in a bucket in which 5 treated branches were placed. The buckets were randomly placed on Danish lorries in a climate cell. After 5 and 10 days the number of dead vine weevils were counted. The climate cell was adjusted at a constant temperature of 20° C. with 16 hours of light and 8 hours of darkness. Each treatment was replicated 4 times.

Data set [3] concerns Otiorhynchus sulcatus. The experiment in a line: Control of Otiorhynchus sulcatus eggs/first instar larvae on the Spreading Yew (treated potting medium). The settings on record: DC formulation, Taxus media densiformis, 25 eggs per plant, live larvae recorded after 3 months. The method, then: Taxus media densiformis plants were planted in potting medium (60% parts pine bark, 20% hardwood bark and 20% peat) which had been treated before with a DC formulation of the active ingredient diluted with water. Plants were maintained outdoors under standard nursery management conditions throughout the growing season. Incubated vine weevil eggs were obtained from a culture of field-collected adults. Plants were infested with 25 brown eggs each. The total number of live larvae was recorded after 3 months. Each experiment was replicated 5 times.

Data set [4] deals with Otiorhynchus sulcatus. The experiment in a line: Control of Otiorhynchus sulcatus adults on Euonymus fortunei 'Dart's Blanket': contact effect. The settings on record: 20° C. The method, then: as §1
The treatments were applied by spraying 10 black vine weevils per petri-dish. The vine weevils were completely moistened after spraying. Afterwards the vine weevils were put into a bucket, in which 5 untreated branches of Euonymus fortunei ‘Dart's Blanket’ were placed. The buckets were randomly placed on Danish lorries in a climate cell. After 1 and 5 days, the number of dead vine weevils was counted. The climate cell was adjusted at a constant temperature of 20° C. with 16 hours of light and 8 hours of darkness. Each treatment was replicated 4 times.

Setting [5] is: branches sprayed with 1.14 g a.i./l.
The mark [6] stands for this setting: branches sprayed with 2.27 g a.i./l.
The mark [7] stands for this setting: branches sprayed with 4.56 g a.i./l.
The mark [8] stands for this setting: 1.14 g a.i./l sprayed on 10 weevils.
The mark [9] stands for this setting: 2.27 g a.i./l sprayed on 10 weevils.
The mark [10] stands for this setting: 4.56 g a.i./l sprayed on 10 weevils.

For `CCNC(=NNc1c(Cl)cc(C(F)(F)F)cc1Cl)C1(C)CC1(Cl)Cl` (stereo not drawn) [Compound I-1, N-Ethyl-2,2-dichloro-1-methylcyclopropane-carboxamide-2-(2,6-dichloro-α,α,α-trifluoro-p-tolyl)hydrazone], the “Average feeding on roots” value is 1.1 in the data set with Otiorhynchus sulcatus [1] (0.9125 g or ml product/3 l pot), 1.0 with Otiorhynchus sulcatus [1] (1.825 g or ml product/3 l pot) and 1.0 with Otiorhynchus sulcatus [1] (3.65 g or ml product/3 l pot). Besides, the figures for the “Average number of total larvae” value in the data set on Otiorhynchus sulcatus [1] (0.9125 g or ml product/3 l pot), with Otiorhynchus sulcatus [1] (1.825 g or ml product/3 l pot) and with Otiorhynchus sulcatus [1] (3.65 g or ml product/3 l pot) were 0.1, 0.0 and 0.0, respectively. Moreover, the phytotoxicity entry with Otiorhynchus sulcatus [1] (Thuja occidentalis 'Holmstrub' pot trial) was “no signs of phytotoxicity”. The “efficacy against the larvae (in words)” value in the data set on Otiorhynchus sulcatus [1] (all treatments in different doses) is listed as “effective against the larvae of Otiorhynchus sulcatus”. For the same molecule, in the data set on Otiorhynchus sulcatus [1] (versus Suscon (chloropyrifos)), the “control of larvae and feeding damage compared with the standard treatment” value is “better control of Otiorhynchus sulcatus larvae and feeding damage than the standard treatment of Suscon (chloropyrifos)”. Besides, the “Average number of dead adults after 5 days” value with Otiorhynchus sulcatus [2] (setting [5]) worked out at 8.5; in the data set on Otiorhynchus sulcatus [2] (setting [6]) it was 6.5; in the data set with Otiorhynchus sulcatus [2] (setting [7]), 8.8; in the data set on Otiorhynchus sulcatus [4] (setting [8]), 6.0; in the data set with Otiorhynchus sulcatus [4] (setting [9]), 9.0; in the data set on Otiorhynchus sulcatus [4] (setting [10]), 8.5. Also, the “Average number of dead adults after 10 days” value in the data set on Otiorhynchus sulcatus [2] (setting [5]) was 10.0; in the data set on Otiorhynchus sulcatus [2] (setting [6]), 8.8; in the data set on Otiorhynchus sulcatus [2] (setting [7]), 10.0. For the same molecule, the control entry with Otiorhynchus sulcatus [3] (rate 250 ppm in potting medium), in the data set with Otiorhynchus sulcatus [3] (rate 750 ppm in potting medium) and with Otiorhynchus sulcatus [3] (rate 1500 ppm in potting medium) was “over 95%” throughout. Moreover, the “Average number of dead adults after 1 day” value was 0.5 in the data set with Otiorhynchus sulcatus [4] (setting [8]), 0.3 in the data set with Otiorhynchus sulcatus [4] (setting [9]) and 0.8 with Otiorhynchus sulcatus [4] (setting [10]).
